Row | Compound | melting point [°C]
1 | CCOC(=O)c1cc2c(Cl)ncnc2[nH]1 | 219 to 221
2 | NCCNc1cc(-n2cccn2)nc(-c2ccco2)n1 | 104 to 105
3 | Nc1nc2ccccc2c2c1ncn2CCOCC#Cc1ccccc1 | 196 to 197
4 | c1ccc(Nc2nc(OCC3CCCCC3)c3[nH]cnc3n2)cc1 | 196 to 199
5 | CC1c2cccc3c2N(CC3)c2ccccc2N1C(=O)CCN(C)C (stereo not given) | 138 to 142
6 | CCCCN=C(O)c1cc([N+](=O)[O-])cc(Sc2ccccc2C(=O)O)c1C(=O)O | 192 to 196
7 | COc1ccc2nc(C)sc2c1N | 117 to 119
8 | CCOC(=O)CS(=O)(=O)Cl | 74 to 77
9 | O=C(CC1CCCCC1)Nc1ccc2oc3c(c2c1)CCCC3 | 189 to 191
10 | Cc1cn(C2CCN(c3c(F)c(C)c4c(=O)c(C(=O)O)cn(C5CC5)c4c3F)C2)nn1 (stereo not given) | 232 to 234
11 | Nc1cn2cc(Sc3ccccc3)ccc2n1 | 110 to 112
12 | O=C(O)CCc1cccc(-c2nc(=O)c3ccc(Cl)cc3s2)n1 | 224 to 225
13 | Clc1cc2c(cc1Cn1c(C3OCCO3)nc(Br)c1Br)OCO2 | 188
14 | Cc1ccccc1-c1ccc(C=O)cn1 | 82 to 84
15 | COc1cc(Cl)nn2c(-c3ccnc(N)c3)c(-c3ccc(F)c(C)c3)nc12 | 200 to 201
16 | Cc1cccnc1-c1ccc(Cl)cc1Cl | 38 to 42.8
17 | CCCCCCCCCCCCCCCCCCOc1cc(OCCCOc2ccc(O)cc2)cc(C(=O)OC)c1 | 85 to 88
18 | COc1c(C(=O)O)n(Cc2ccccc2)c2ccccc12 | 115 to 117

Row | Compound | melting point [°C]
19 | NCCN1CCC(Nc2nc3ccccc3n2Cc2ccnc3ccccc23)CC1 | 196
20 | Cc1cc2ncc(-c3ccsc3)nc2cc1C | 142 to 144
21 | COc1ccc(C2(O)OC(=O)C(c3cc(OC)c4c(c3)OCO4)=C2CC2CCCC2)cc1 (stereo not given) | 139 to 140
22 | NC(=O)c1ccccc1NCc1ccc(Cl)cc1 | 138 to 139
23 | O=[N+]([O-])c1ccc(-c2cc3c(O)ncnc3o2)cc1 | > 350
24 | Cc1cc(-n2ncnn2)cc2ccc(=O)[nH]c12 | 264 to 266
25 | CCC(Cl)C(=O)Nc1c(C(=O)CC(=O)Nc2nccs2)cccc1C(F)(F)F (stereo not given) | 170
26 | CN1CC(c2ccc(Cl)cc2)C(=O)C(c2cccc(Cl)c2)C1 (stereo not given) | 126
27 | CCOC(=O)c1cc2cccc(OC)c2[nH]1 | 69 to 72
28 | COc1ccc(C2=Nc3ccc(N4CCOCC4)cc3C(=O)C2)cc1 | 302 to 304
29 | O=C(c1ccccc1F)c1cc(Cl)ccc1I | 78 to 81
30 | Cc1nc2c(N)nc3ccccc3c2n1CCOCCCc1ccccc1 | 130 to 131
31 | CN(CC(O)CN(C)S(=O)(=O)C(F)(F)C(F)(F)C(F)(F)C(F)(F)F)S(=O)(=O)C(F)(F)F (stereo not given) | 79 to 85
32 | C=CCCn1cnc2c1c(=O)n(CCCC)c(=O)n2CCCC | 41 to 42
33 | Cc1nnc(NCc2ccccc2)s1 | 140
34 | O=C(NCCCCCC(=O)C(F)(F)F)OCC1c2ccccc2-c2ccccc21 | 83 to 88
35 | CCCCCCCCCCCCCCCCCCS(=O)c1cc2ccccc2c(N)c1O (stereo not given) | 95 to 97

Continued, values first:

Row | melting point [°C] | Compound
36 | 51 to 53 | CCCS(=O)c1ncc(C(F)(F)F)cc1Cl (stereo not given)
37 | 151 to 154 | CCC1c2cccn2-c2ccc(C(F)(F)F)cc2N1S(=O)(=O)c1ccc(OC)c(C)c1 (stereo not given)
38 | 131 to 136 | COc1cc(C(=O)NS(=O)(=O)c2ccccc2Cl)ccc1Cc1cn(C)c2ccc(CC(C)NC(=O)N(C)C)cc12 (stereo not given)
39 | 125 to 126 | CC(=O)NC(=O)C(Cl)Cc1ccc(OCC(C)(C)c2ccccc2)cc1 (stereo not given)
40 | 103 to 105 | Nc1ccc(Cl)cc1C(=O)c1c(F)cccc1F
41 | 165 to 166 | COc1ccc(CCNC(=O)C(F)(F)F)cc1S(N)(=O)=O
42 | 135 to 136 | COC(=O)c1ccc2scc(-c3ccc(SC)cc3)c2c1
43 | 150 | Cc1ccc(S(=O)(=O)NC(=O)c2cc(Oc3ccc(C(F)(F)F)cc3Cl)ccc2[N+](=O)[O-])cc1
44 | 90 to 94 | Nc1ccnn1-c1c(Cl)cc(C(F)(F)F)cc1Cl
45 | 177 | Cc1cn2ccccc2c1S(=O)(=O)c1ccc(O)cc1
46 | 101 to 105 | COC(=O)c1ccc(N2CCC[C@H](N(Cc3cc(C(F)(F)F)cc(C(F)(F)F)c3)c3nnn(C)n3)c3cc(C)c(C(F)(F)F)cc32)cc1
47 | 218 to 219 | CN1CCN(c2cc(NC(=O)c3ccc(-c4ccncc4)cc3)ccc2Cl)CC1
48 | 152 to 155 | Cn1nc(C(F)(F)F)n(-c2ccc([N+](=O)[O-])cc2Cl)c1=S
49 | 253 to 254 | O=C(O)c1ccc(-c2nc(-c3cccc(C(F)(F)F)c3)co2)cc1
50 | 186 to 188 | O=C(Nc1cccc(-c2nnn[nH]2)c1)Oc1ccc([N+](=O)[O-])cc1

Reference: a melting point compilation (Tetko et al.; mined from patent text by program, amines drawn as free bases though some values may be those of a salt)
